Assay results reported in PubChem BioAssay (NCI).
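Following 48 hours of exposure in 96-well plates, responses at five concentrations were used to interpolate endpoints linearly. Here, GI50 denotes the concentration required for 50% inhibition of growth. The concentration for full growth arrest is given as TGI.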

Columns and labels:
Assay in all cases: inhibition of tumour cell growth, NCI panel, 48 h
[1] = system: RXF 393 renal
[2] = system: CAKI-1 renal
[3] = system: NCI/ADR-RES ovarian
[4] = system: HCT-116 colon
[5] = system: BT-549 breast
[6] = system: EKVX NSCLC
[7] = system: SF-295 CNS
[8] = system: SK-OV-3 ovarian
[9] = system: SK-MEL-28 melanoma
[10] = system: MDA-MB-435
[11] = system: SR leukemia
[12] = system: COLO 205 colon
[13] = system: HL-60(TB) leukemia
[14] = system: UACC-257 melanoma
[15] = system: A498 renal
[16] = system: MOLT-4 leukemia
[17] = system: OVCAR-5 ovarian
[18] = system: SNB-75 CNS
[19] = system: HS 578T breast
[20] = system: NCI-H522 lung
[21] = system: CCRF-CEM leukemia
[22] = system: MCF7 breast
[23] = system: NCI-H460 lung
[24] = system: NCI-H226 lung
[25] = system: HT29 colon
[26] = system: SK-MEL-5 melanoma
[27] = system: PC-3 prostate
[28] = system: SK-MEL-2 melanoma
[29] = system: A549 NSCLC
[30] = system: HCC-2998 colon
[31] = system: KM12 colon
[32] = system: RPMI-8226 leukemia
[33] = system: MDA-MB-231 breast
[34] = system: SF-539 CNS
[35] = system: MALME-3M melanoma
[36] = system: NCI-H23 lung
[37] = system: OVCAR-8 ovarian
[38] = system: ACHN renal
[39] = system: UACC-62 melanoma
[40] = system: SW-620 colon
[41] = system: DU-145 prostate
[42] = system: IGROV1 ovarian
[43] = system: UO-31 renal
[44] = system: T-47D breast
[45] = system: HOP-62 NSCLC
[46] = system: SN12C renal
[47] = system: M14 melanoma
[48] = system: 786-0 renal
[49] = system: U251 CNS
[50] = system: SF-268 CNS
[51] = system: LOX IMVI melanoma
[52] = system: SNB-19 CNS
[53] = system: K-562 leukemia
[54] = system: OVCAR-4 ovarian
[55] = system: TK-10 renal
[56] = system: HCT-15 colon
[57] = system: OVCAR-3 ovarian
[58] = system: HOP-92 NSCLC

SMILES: Nc1ncc(-c2ccc3ncnc(N4CCc5cc(F)c(F)cc54)c3c2)cn1
- GI50 [1]: 381 nM
- TGI [1]: 3150 nM
- GI50 [2]: 890 nM
- TGI [2]: > 100000 nM
- GI50 [3]: 3910 nM
- TGI [3]: > 100000 nM
- GI50 [4]: 4510 nM
- TGI [4]: > 100000 nM
- GI50 [5]: 1860 nM
- TGI [5]: > 100000 nM
- GI50 [6]: 1700 nM
- TGI [6]: > 100000 nM
- GI50 [7]: 2300 nM
- TGI [7]: > 100000 nM
- GI50 [8]: 1660 nM
- TGI [8]: > 100000 nM
- GI50 [9]: 3260 nM
- TGI [9]: > 100000 nM
- GI50 [10]: 2730 nM
- TGI [10]: > 100000 nM
- GI50 [11]: 1820 nM
- TGI [11]: > 100000 nM
- GI50 [12]: 5770 nM
- TGI [12]: > 100000 nM
- GI50 [13]: 5520 nM
- TGI [13]: > 100000 nM
- GI50 [14]: 7300 nM
- TGI [14]: > 100000 nM
- GI50 [15]: 251 nM
- TGI [15]: 2130 nM
- GI50 [16]: 3320 nM
- TGI [16]: > 100000 nM
- GI50 [17]: 1530 nM
- TGI [17]: > 100000 nM
- GI50 [18]: 455 nM
- TGI [18]: 4030 nM
- GI50 [19]: 751 nM
- TGI [19]: 4660 nM
- GI50 [20]: 4940 nM
- TGI [20]: > 100000 nM
- GI50 [21]: 2380 nM
- TGI [21]: > 100000 nM
- GI50 [22]: 1230 nM
- TGI [22]: > 100000 nM
- GI50 [23]: 2110 nM
- TGI [23]: > 100000 nM
- GI50 [24]: 3000 nM
- TGI [24]: > 100000 nM
- GI50 [25]: 2900 nM
- TGI [25]: > 100000 nM
- GI50 [26]: 6100 nM
- TGI [26]: > 100000 nM
- GI50 [27]: 1440 nM
- TGI [27]: > 100000 nM
- GI50 [28]: 2440 nM
- TGI [28]: 12300 nM
- GI50 [29]: 2350 nM
- TGI [29]: > 100000 nM
- GI50 [30]: 3080 nM
- TGI [30]: > 100000 nM
- GI50 [31]: 3920 nM
- TGI [31]: > 100000 nM
- GI50 [32]: 559 nM
- TGI [32]: > 100000 nM
- GI50 [33]: 1870 nM
- TGI [33]: > 100000 nM
- GI50 [34]: 2490 nM
- TGI [34]: > 100000 nM
- GI50 [35]: 1080 nM
- TGI [35]: > 100000 nM
- GI50 [36]: 4760 nM
- TGI [36]: > 100000 nM
- GI50 [37]: 3060 nM
- TGI [37]: > 100000 nM
- GI50 [38]: 1730 nM
- TGI [38]: > 100000 nM
- GI50 [39]: 1370 nM
- TGI [39]: > 100000 nM
- GI50 [40]: 6860 nM
- TGI [40]: > 100000 nM
- GI50 [41]: 2380 nM
- TGI [41]: > 100000 nM
- GI50 [42]: 459 nM
- TGI [42]: 3340 nM
- GI50 [43]: 396 nM
- TGI [43]: > 100000 nM
- GI50 [44]: 858 nM
- TGI [44]: > 100000 nM
- GI50 [45]: 1360 nM
- TGI [45]: > 100000 nM
- GI50 [46]: 2110 nM
- TGI [46]: > 100000 nM
- GI50 [47]: 3530 nM
- TGI [47]: > 100000 nM
- GI50 [48]: 3420 nM
- TGI [48]: > 100000 nM
- GI50 [49]: 4810 nM
- TGI [49]: > 100000 nM
- GI50 [50]: 1800 nM
- TGI [50]: > 100000 nM
- GI50 [51]: 1770 nM
- TGI [51]: 14100 nM
- GI50 [52]: 5350 nM
- TGI [52]: > 100000 nM
- GI50 [53]: > 100000 nM
- TGI [53]: > 100000 nM
- GI50 [54]: 1760 nM
- TGI [54]: > 100000 nM
- GI50 [55]: 709 nM
- TGI [55]: > 100000 nM
- GI50 [56]: 2280 nM
- TGI [56]: > 100000 nM

SMILES: CSc1ccc(/C(=N/N=C(N)N)c2ccc(Cl)cc2)cc1
- GI50 [1]: 509 nM
- TGI [1]: 2140 nM
- GI50 [2]: 536 nM
- TGI [2]: 2980 nM
- GI50 [3]: 748 nM
- TGI [3]: 2870 nM
- GI50 [4]: 364 nM
- TGI [4]: 1270 nM
- GI50 [5]: 1700 nM
- TGI [5]: 3350 nM
- GI50 [6]: 1030 nM
- TGI [6]: 14700 nM
- GI50 [7]: 368 nM
- TGI [7]: 1570 nM
- GI50 [8]: 593 nM
- TGI [8]: 14300 nM
- GI50 [9]: 957 nM
- TGI [9]: 2350 nM
- GI50 [10]: 242 nM
- TGI [10]: 593 nM
- GI50 [11]: 349 nM
- TGI [11]: 2300 nM
- GI50 [12]: 298 nM
- TGI [12]: 864 nM
- GI50 [13]: 268 nM
- TGI [13]: 784 nM
- GI50 [14]: 891 nM
- TGI [14]: 2520 nM
- GI50 [15]: 1810 nM
- TGI [15]: 4980 nM
- GI50 [16]: 422 nM
- TGI [16]: 3520 nM
- GI50 [17]: 496 nM
- TGI [17]: 7270 nM
- GI50 [18]: 380 nM
- TGI [18]: 4140 nM
- GI50 [19]: 1280 nM
- TGI [19]: 14900 nM
- GI50 [20]: 213 nM
- TGI [20]: 516 nM
- GI50 [21]: 375 nM
- TGI [21]: 5990 nM
- GI50 [22]: 355 nM
- TGI [22]: 2060 nM
- GI50 [23]: 376 nM
- TGI [23]: 1510 nM
- GI50 [24]: 1180 nM
- TGI [24]: 6400 nM
- GI50 [25]: 332 nM
- TGI [25]: 1130 nM
- GI50 [26]: 949 nM
- TGI [26]: 2160 nM
- GI50 [27]: 447 nM
- TGI [27]: 5220 nM
- GI50 [28]: 473 nM
- TGI [28]: 3840 nM
- GI50 [29]: 399 nM
- TGI [29]: 4810 nM
- GI50 [57]: 500 nM
- TGI [57]: 4130 nM
- GI50 [30]: 333 nM
- TGI [30]: 1160 nM
- GI50 [31]: 416 nM
- TGI [31]: 4010 nM
- GI50 [32]: 456 nM
- TGI [32]: 3130 nM
- GI50 [33]: 499 nM
- TGI [33]: 3180 nM
- GI50 [34]: 291 nM
- TGI [34]: 935 nM
- GI50 [35]: 869 nM
- TGI [35]: 2410 nM
- GI50 [36]: 617 nM
- TGI [36]: 12000 nM
- GI50 [37]: 607 nM
- TGI [37]: 3870 nM
- GI50 [38]: 744 nM
- TGI [38]: 4460 nM
- GI50 [39]: 707 nM
- TGI [39]: 2420 nM
- GI50 [40]: 480 nM
- TGI [40]: 1960 nM
- GI50 [41]: 468 nM
- TGI [41]: 4240 nM
- GI50 [42]: 860 nM
- TGI [42]: 5860 nM
- GI50 [43]: 1000 nM
- TGI [43]: 4030 nM
- GI50 [44]: 558 nM
- TGI [44]: 4940 nM
- GI50 [45]: 569 nM
- TGI [45]: 5660 nM
- GI50 [58]: 663 nM
- TGI [58]: 5510 nM
- GI50 [46]: 500 nM
- TGI [46]: 2210 nM
- GI50 [47]: 362 nM
- TGI [47]: 1270 nM
- GI50 [48]: 754 nM
- TGI [48]: 2350 nM
- GI50 [49]: 382 nM
- TGI [49]: 2170 nM
- GI50 [50]: 1060 nM
- TGI [50]: 6630 nM
- GI50 [51]: 397 nM
- TGI [51]: 1520 nM
- GI50 [52]: 696 nM
- TGI [52]: 14200 nM
- GI50 [53]: 342 nM
- TGI [53]: 1700 nM
- GI50 [54]: 1550 nM
- TGI [54]: 13200 nM
- GI50 [55]: 2830 nM
- TGI [55]: 12600 nM
- GI50 [56]: 340 nM
- TGI [56]: 2140 nM
